Source: US7166589B2, “Quinoline derivatives” (Hoffmann-La Roche Inc., priority 2001, dated 2007)

Target: T1, mouse NPY5-receptor (mNPY5) (Mus musculus, UniProt O70342)
T1 construct: The full-length cDNA encoding the mouse NPY5 (mNPY5) receptor was amplified from mouse brain cDNA; expressed in transfected cells
T1 sequence (O70342 1-466): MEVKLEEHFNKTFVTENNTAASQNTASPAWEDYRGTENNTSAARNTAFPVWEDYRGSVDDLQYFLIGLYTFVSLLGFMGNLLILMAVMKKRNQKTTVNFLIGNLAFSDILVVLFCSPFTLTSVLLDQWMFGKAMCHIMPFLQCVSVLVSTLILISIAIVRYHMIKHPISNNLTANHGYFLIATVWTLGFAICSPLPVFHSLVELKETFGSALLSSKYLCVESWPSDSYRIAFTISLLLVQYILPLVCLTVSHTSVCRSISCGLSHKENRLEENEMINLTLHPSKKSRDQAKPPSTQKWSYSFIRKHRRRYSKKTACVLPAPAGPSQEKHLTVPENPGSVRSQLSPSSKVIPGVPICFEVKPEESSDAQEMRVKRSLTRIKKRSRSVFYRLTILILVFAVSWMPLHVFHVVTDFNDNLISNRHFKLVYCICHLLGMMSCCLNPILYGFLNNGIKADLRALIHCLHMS
Assay: Radioligand competition binding, [125I]PYY, membranes of HEK293 cells expressing recombinant mouse NPY5 receptor
Conditions: 100 pM [125I]labelled peptide YY, 1 h at 22° C.
Excerpt: The full-length cDNA encoding the mouse NPY5 (mNPY5) receptor was amplified from mouse brain cDNA using specific primers, designed based on the published sequence, and Pfu DNA-Polymerase (Stratagene). The amplification product was subcloned into the mammalian expression vector pcDNA3 using Eco RI and XhoI restriction sites. Positive clones were sequenced and one clone, encoding the published sequence was selected for generation of stable cell clones.
Human embryonic kidney 293 (HEK293) cells were transfected with 10 μg mNPY5 DNA using the lipofectamine reagent (Gibco BRL) according to the manufacturer's instruction. Two days after transfection, geneticin selection (1 mg/ml) was initiated and several stable clones were isolated. One clone was further used for pharmacological characterization.
Human embryonic kidney 293 cells (HEK293), expressing recombinant mouse NPY5-receptor (mNPY5) were broken by three freeze/thawing cycles in hypotonic Tris buffer (5 mM, pH 7.4, 1 mM MgCl2), homogenized and centrifuged at 72,000×g for 15 min. The pellet was washed twice with 75 mM Tris buffer, pH 7.4, containing 25 mM MgCl2 and 250 mM sucrose, 0.1 mM phenylmethylsulfonylfluoride and 0.1 mM 1,10-pheneanthrolin, resuspended in the same buffer and stored in aliquots at −80° C. Protein was determined according to the method of Lowry using bovine serum albumine (BSA) as a standard.

IC50 [nM] | Structure (SMILES)
22 | Cc1cc(N2CCCC2)c2ccc(COc3ccc(C#N)cc3)cc2n1 [Example 5, 4-(2-Methyl-4-pyrrolidin-1-yl-quinolin-7-ylmethoxy)-benzonitrile]
130 | Cc1cc(N2CCCC2)c2ccc(CNc3ccc(C#N)cc3)cc2n1 [Example 13, 4-[(2-Methyl-4-pyrrolidin-1-yl-quinolin-7-ylmethyl)-amino]-benzonitrile]
